Reference: publication PMC5297726, “Anti-Neuroblastoma Properties of a Recombinant Sunflower Lectin” (International Journal of Molecular Sciences, 2017)

Target: T1, Trx-rHelja (Helianthus annuus, UniProt A0A059VAE5)
T1 construct: N-terminal thioredoxin, His6 and enterokinase-site tags kept; E. coli Rosetta-gami2 (DE3) pLysS; about 35 kDa fusion (Helja about 20 kDa)
Experiment: affinity chromatography on D-mannose-agarose, elution with mannose, SDS-PAGE
Format: binding
Settings: 50 mM Tris-HCl pH 7.5, 100 mM NaCl; D-mannose immobilised on agarose; eluted with 200 mM free mannose

T1 sequence (A0A059VAE5 entry or part of it): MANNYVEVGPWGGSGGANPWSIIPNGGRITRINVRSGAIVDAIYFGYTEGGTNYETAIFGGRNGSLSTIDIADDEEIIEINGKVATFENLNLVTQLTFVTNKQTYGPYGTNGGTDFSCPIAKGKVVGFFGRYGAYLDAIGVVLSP

OC[C@H]1OC(O)[C@@H](O)[C@@H](O)[C@@H]1O (stereo partly shown) [mannose]
affinity chromatography on D-mannose-agarose, elution with mannose, SDS-PAGE: the recombinant protein was bounded to the matrix and eluted with mannose
